# Patent publication US20240301372A1, “TREATMENT FOR HSV-1 USING A MEGANUCLEASE” (priority 2021, published 2024)
# Tested on: HSV-1
# Assay: JQ1 reactivation (shedding) mouse model
# Type: in vivo, mice
# Details: for shedding of HSV from mucosal surfaces: 50 mg/kg
# Description: FIG. 19. Schematic for JQ1 reactivation experiment. Latent infected mice were divided into three experimental groups to determine the effect of JQ1 on HSV reactivation. As illustrated in the figure, Group 1 and Group 2 were JQ1 groups that received a 50 mg/kg intraperitoneal injection of JQ1. Group 3 was the control group, i.e., no JQ1 injection. Group 1 mice received two injections, the first JQ1 injection at 0 hrs and the second JQ1 injection at 12 hrs. Group 2 mice received one injection at 0 hrs. Group 3 mice received one control injection at 0 hrs. To determine shedding from mucosal surfaces, as an indicator of HSV reactivation, mice were swabbed at 0 hrs (control) and this swab was compared to swabs taken at 24 hours, 48 hours, and 72 hours.
# To begin, the mouse model for BET induced shedding was verified. In this model, latent infected mice were divided into three experimental groups to determine the effect of the BET inhibitor, JQ1, on HSV-1 reactivation. FIG. 19. As illustrated, Group 1 and Group 2 were JQ1 groups that received 50 mg/kg intraperitoneal injection of JQ1. Group 3 was the control group, i.e., no JQ1 injection. Group 1 mice received two injections, the first JQ1 injection at 0 hrs and the second JQ1 injection at 12 hrs. Group 2 mice received one injection at 0 hrs. Group 3 mice received one control injection at 0 hrs. To determine shedding from mucosal surfaces, as an indicator of HSV-1 reactivation, mice were swabbed at 0 hrs (control) and this swab was compared to swabs taken at 24 hours, 48 hours, and 72 hours. […] FIG. 20B. […] Compare the onset and duration of viral shedding in JQ1 double dose to JQ1 single dose.
compound,measurement,setting,value
"Cc1sc2c(c1C)C(c1ccc(Cl)cc1)=N[C@@H](CC(=O)OC(C)(C)C)c1nnc(C)n1-2 [JQ1, tert-butyl (S)-2-(4-(4-chlorophenyl)-2,3,9-trimethyl-6H-thieno[3,2-f][1,2,4]triazolo[4,3-a][1,4]diazepin-6-yl)acetate]",time of peak shedding following JQ1 injection,single dose 50 mg/kg intraperitoneal,2 days
same,shedding of HSV from mucosal surfaces,"single dose 50 mg/kg intraperitoneal at 0 hrs, swabs 24, 48, 72 hours",Shedding was detected
same,shedding of HSV from mucosal surfaces,two doses 50 mg/kg intraperitoneal at 0 hrs and 12 hrs,Shedding was also detected
